Tests used:
[1] = intravitreal, wet AMD, cited from earlier work
[2] = tested on: human retinal endothelial cells (HREC); assay: Testing 7: VEGF-induced HREC proliferation (MTS assay), integrin antagonists and Lucentis alone and in combination; format: cell-based; conditions: Lucentis 1 ng/mL
Procedure: HREC were first cultured overnight in a 96-well plate coated with fibronectin. The next day medium containing different agents as shown in Tables 14 and 15 was pre-incubated for 1 hour before being added into appropriate wells. The cells were cultured at 37° C., 5% CO2, and 95% humidity for another 3 days. After that, cell proliferation was estimated by the MTS assay. In the first study we used VEGF 10 ng/mL (about EC80 in study PH08169), Lucentis® 1 ng/mL (about EC25 in study PH09038) and 5 doses of BOL-303055-X. Normal IgG (1 ng/ml) was also added to groups containing no Lucentis®. All groups contained the same amount of 0.1% DMSO. In the second study, all five compounds (BOL-303049-X, BOL-303050-X, BOL-303051-X, BOL-303054-X and BOL-303055-X) were tested at 1 nM with other conditions remaining the same.
A 96-well plate was coated with human fibronectin (10 μg/mL) for 5 hours at 37° C. HREC were washed with HBSS buffer once, tripsinized and re-suspended in 10% FBS CS-C medium at 18,000 cells/mL. Cells (200 μL) were added to the plate and cultured overnight at 37° C., 5% CO2, and 95% humidity. Next day, the cells were serum-starved for 2 hours.
For study I, VEGF at 10 ng/mL, Lucentis® at 1 ng/mL and BOL-303055-X at 0.1, 0.3, 1, 3 and 10 nM were prepared in 1% FBS CS medium as shown in Table 14. Normal IgG (1 ng/mL) were added to groups containing no Lucentis®. All medium solutions were incubated for 1 hour at 37° C. After carefully medium was aspirated, 200 μL of the medium containing different agents were then added into appropriate wells. The cells were cultured for another 3 days. For the study II as shown in the Table 15, five compounds were tested at 1 nM with other conditions remaining the same as study I.
At the end of incubation, the medium was carefully aspirated from cells and 120 μl of MTS working solution was added into all wells including blank wells (without cells). The plates were incubated at 37° C., 5% CO2, and 95% humidity for 1 hour and then read by a plate reader at 490 nm wavelength.
Median optical density (OD) was generated from different groups. Data were expressed as mean±SEM of the OD values. Statistical analysis was performed using three-way ANOVA after Box-Cox transformations, and p<0.05 was considered statistically significant. To evaluate whether the effects of the combinations were either synergistic or additive, net inhibitions were calculated by subtracting the basal levels in the presence of VEGF from the individual treatments (Lucentis® and Integrin blockers) and the combinations. […] Data analysis was performed utilizing the statistical analysis software JMP (SAS Institute, Cary, N.C.).

[3] = tested on: laser-induced CNV in monkeys; assay: Laser-induced choroidal neovascularization in monkeys, fluorescein angiography lesion grading; format: in vivo, cynomolgus monkeys (Macaca fascicularis); conditions: intravitreal, both eyes, days 1 and 15, 1.5 mg/eye (Lucentis 0.5 mg/eye)
Procedure: Study was performed in three phases. In phases Ia and Ib, the behavior of the suspension in aqueous (Ia) and oil (Ib) formulations, and multiple dosing regimens as well as any adverse effect due to multiple dosing at 3 mg/eye (Ia) or 1.5 (Ib) were investigated. In phase II test articles were administered twice during the study period on days 1 and 15. Eyes were examined with an indirect ophthalmoscope and fundus camera.
Adult male cynomolgus monkeys (Macaca fascicularis) age 2-7 years old were used to test the efficacy of BOL-303050-X, BOL-303054-X and BOL-303055-X. Lucentis® (ranibizumab) was used as historic control.
Both eyes of 46 monkeys were examined at baseline and then 42 animals were randomized into 5 groups. On Phase II Day 8 of Dosing, the animals were anesthetized with ketamine and dexmedetomidine and the macula of each eye of the animals in Groups 1 through […] underwent laser treatment by a retinal surgeon with a 532 nm diode green laser (OcuLight GL, IRIDEX Corp. Inc., Mountain View, Calif.) using a slit lamp delivery system and a Kaufman-Wallow (Ocular Instruments Inc, Bellevue, Wash.) plano fundus contact lens with Gonak (2.5%) as the coupling agent. Nine laser spot areas were symmetrically placed in the macula of each eye. The laser parameters included a 75 micron spot size and 0.1 second duration. The power setting used was assessed by the ability to produce a blister and a small hemorrhage. […] For areas not adjacent to the fovea, the initial power setting was 500 mW; if a second spot was placed, the power was set to 650 mW. For the area adjacent to the fovea the power settings were 400 mW (initial treatment) and 550 mW (second treatment). At the discretion of the retinal surgeon, power settings were adjusted based on observations at the time of laser. Power setting used for each spot was documented as well as number of burns per spot and whether hemorrhage occurred.
(§1) Once the phase Ib study was completed, and it was established that the drug suspension in oil would not interfere with either laser administration, evaluation of CNV or cause adverse effects, phase II was initiated. On days 1, and 15 both eyes of monkeys received 50 μL of Lucentis (0.5 mg/eye), vehicle (0 mg/eye), BOL-303050-X (1.5 mg/eye), BOL-303054-X (1.5 mg/eye) or BOL-303055-X (1.5 mg/eye) (Table 2). Intravitreous injection was performed for each by eye aiming towards mid-vitreous body. Dosing in the right eye was alternated for successive doses (as applicable) at approximately the 11 o'clock and 10 o'clock positions. Dosing in the left eye was alternated for successive doses (as applicable) from approximately the 1 o'clock and 2 o'clock positions.
Animals were anesthetized with ketamine and dexmedetomidine. A topical anesthetic (0.5% proparacaine) was instilled in each eye before dose administration. A wire speculum was used to retract the eyelids. The eyes were cleaned with a 2.5% povidone iodine solution and then rinsed with sterile saline. Each animal was dosed using 1 cc tuberculin syringes and 30 gauge needles.
FA was performed at baseline, on days 22, 29 and 37 (approximately 14, 21 and 28 days post-laser). Digital ocular photographs were taken in conjunction with FA. The FA procedure is well known by people skilled in the art of ophthalmology.
Evaluation of FA was done according to the following grading system for evidence of excessive permeability (fluorescein leakage) or any other abnormalities.
Grade IV lesions are considered to be clinically significant as these most closely resemble the active forms of classical CNV seen in various human retinal disorders, including age-related macular degeneration. Comparison of the incidence of Grade IV lesions between treatment groups was evaluated.
Grade IV lesions were analyzed using either Fisher's exact probability test (2-Tail) or Chi square test (χ2). […]

[4] = Clinical ophthalmic examination in monkeys (vitreal cell scores, anterior chamber inflammation); format: in vivo, cynomolgus monkeys (Macaca fascicularis); conditions: cynomolgus monkey, in vivo
Procedure: as §1
Animals were examined at baseline, on days 1, 3, 7, 15, and 31 of Dosing Phase II and on the day of scheduled sacrifice (day 38). On days of dose administration the ophthalmic examination was done prior to dosing.

## ranibizumab [Lucentis, reference compound]
[1]; at 1 year
  Patients who maintained visual acuity: 95%
[1]
  Patients with improvement in vision of at least 3 lines: 40%
[2]; VEGF 10 ng/mL
  Reduction of VEGF-induced HREC proliferation: 15-20%
[2]; basal and Lucentis-treatment conditions, BOL-303055-X 0.1-10 nM, other compounds 1 nM
  HREC proliferation without VEGF: did not alter HREC proliferation
[3]; Day 22
  Incidence of CNV lesions, Lesion Grade I (% Total): 97:126 (76.98) %
  Incidence of CNV lesions, Lesion Grade II (% Total): 20:126 (15.87) %
  Incidence of CNV lesions, Lesion Grade III (% Total): 9:126 (7.14) %
  Incidence of CNV lesions, Lesion Grade IV (% Total): 0:126 (0) %
[3]; Day 29
  Incidence of CNV lesions, Lesion Grade I (% Total): 96:126 (76.19) %
  Incidence of CNV lesions, Lesion Grade II (% Total): 22:126 (17.46) %
  Incidence of CNV lesions, Lesion Grade III (% Total): 8:126 (6.35) %
  Incidence of CNV lesions, Lesion Grade IV (% Total): 0:126 (0) %
[3]; Day 37
  Incidence of CNV lesions, Lesion Grade I (% Total): 118:126 (93.65) %
  Incidence of CNV lesions, Lesion Grade II (% Total): 8:126 (6.35) %
  Incidence of CNV lesions, Lesion Grade III (% Total): 3:126 (1.85) %
  Incidence of CNV lesions, Lesion Grade IV (% Total): 0:126 (0) %
[4]
  Vitreal cell score: number of eyes with grade 4: 0

— patent US20110189174A1, “COMPOSITIONS AND METHODS FOR TREATING, REDUCING, AMELIORATING, ALLEVIATING, OR INHIBITING PROGRESSION OF, PATHOGENIC OCULAR NEOVASCULARIZATION” (priority 2010, published 2011)
